Test results: ChEMBL document CHEMBL3352216, “Triterpene glycosides from red ginseng marc and their anti-inflammatory activities” (Bioorg Med Chem Lett, 2014)
Values after ≈ are worked out from the molar mass of the structure shown. Active and inactive are the calls of the source. No cut-off for these calls is given here.

Key:
[1] = test system: RAW264.7; assay: Antiinflammatory activity in LPS-stimulated mouse RAW264.7 cells assessed as reduction in TNFalpha expression at 80 uM co-incubated with LPS for 24 hrs by RT-PCR method relative to untreated control; type: functional
[2] = test system: RAW264.7; assay: Antiinflammatory activity in LPS-stimulated mouse RAW264.7 cells assessed as reduction in TNFalpha expression at 120 uM co-incubated with LPS for 24 hrs by RT-PCR method relative to untreated control; type: functional
[3] = test system: RAW264.7; assay: Antiinflammatory activity in LPS-stimulated mouse RAW264.7 cells assessed as reduction in IL-1beta expression at 40 uM co-incubated with LPS for 24 hrs by RT-PCR method relative to untreated control; type: functional
[4] = test system: RAW264.7; assay: Antiinflammatory activity in LPS-stimulated mouse RAW264.7 cells assessed as reduction in IL-1beta expression at 80 uM co-incubated with LPS for 24 hrs by RT-PCR method relative to untreated control; type: functional
[5] = test system: RAW264.7; assay: Antiinflammatory activity in LPS-stimulated mouse RAW264.7 cells assessed as reduction in IL-1beta expression at 120 uM co-incubated with LPS for 24 hrs by RT-PCR method relative to untreated control; type: functional
[6] = test system: RAW264.7; assay: Antiinflammatory activity in LPS-stimulated mouse RAW264.7 cells assessed as reduction in IL6 expression at 40 uM co-incubated with LPS for 24 hrs by RT-PCR method relative to untreated control; type: functional
[7] = test system: RAW264.7; assay: Antiinflammatory activity in LPS-stimulated mouse RAW264.7 cells assessed as reduction in IL6 expression at 80 uM co-incubated with LPS for 24 hrs by RT-PCR method relative to untreated control; type: functional
[8] = test system: RAW264.7; assay: Antiinflammatory activity in LPS-stimulated mouse RAW264.7 cells assessed as reduction in IL6 expression at 120 uM co-incubated with LPS for 24 hrs by RT-PCR method relative to untreated control; type: functional
[9] = test system: RAW264.7; assay: Antiinflammatory activity in LPS-stimulated mouse RAW264.7 cells assessed as reduction in iNOS expression co-incubated with LPS for 24 hrs by RT-PCR method relative to untreated control; type: functional, cell-based
[10] = test system: RAW264.7; assay: Antiinflammatory activity in LPS-stimulated mouse RAW264.7 cells assessed as reduction in IL6 level at 40 uM co-incubated with LPS for 24 hrs by ELISA method; type: functional, cell-based
[11] = Cytotoxicity against LPS-stimulated mouse RAW264.7 cells assessed as cell viability at 40 uM after 24 hrs by MTT assay (reference value: 100%); type: cell-based; conditions: LPS-stimulated RAW264.7 cells, read-out: Activity
[12] = Cytotoxicity against LPS-stimulated mouse RAW264.7 cells assessed as cell viability at 80 uM after 24 hrs by MTT assay (reference value: 100%); type: cell-based; conditions: LPS-stimulated RAW264.7 cells, read-out: Activity
[13] = Cytotoxicity against LPS-stimulated mouse RAW264.7 cells assessed as cell viability at 120 uM after 24 hrs by MTT assay (reference value: 100%); type: cell-based; conditions: LPS-stimulated RAW264.7 cells, read-out: Activity
[14] = test system: RAW264.7; assay: Antiinflammatory activity in LPS-stimulated mouse RAW264.7 cells assessed as reduction in nitric oxide production at 40 uM after 24 hrs by Griess method based ELISA (reference value: 52.4 +/- 0.9 uM); type: functional
[15] = test system: RAW264.7; assay: Antiinflammatory activity in LPS-stimulated mouse RAW264.7 cells assessed as reduction in nitric oxide production at 80 uM after 24 hrs by Griess method based ELISA (reference value: 52.4 +/- 0.9 uM); type: functional
[16] = test system: RAW264.7; assay: Antiinflammatory activity in LPS-stimulated mouse RAW264.7 cells assessed as reduction in nitric oxide production at 120 uM after 24 hrs by Griess method based ELISA (reference value: 52.4 +/- 0.9 uM); type: functional
[17] = test system: RAW264.7; assay: Antiinflammatory activity in LPS-stimulated mouse RAW264.7 cells assessed as reduction in nitric oxide production after 24 hrs by Griess method based ELISA; type: functional, cell-based; conditions: RAW264.7, 24 h
[18] = test system: RAW264.7; assay: Induction of iNOS mRNA expression in LPS-non-stimulated mouse RAW264.7 cells by RT-PCR method; type: cell-based
[19] = test system: RAW264.7; assay: Antiinflammatory activity in LPS-stimulated mouse RAW264.7 cells assessed as reduction in iNOS expression at 40 uM co-incubated with LPS for 24 hrs by RT-PCR method relative to untreated control; type: functional
[20] = test system: RAW264.7; assay: Antiinflammatory activity in LPS-stimulated mouse RAW264.7 cells assessed as reduction in iNOS expression at 80 uM co-incubated with LPS for 24 hrs by RT-PCR method relative to untreated control; type: functional
[21] = test system: RAW264.7; assay: Antiinflammatory activity in LPS-stimulated mouse RAW264.7 cells assessed as reduction in iNOS expression at 120 uM co-incubated with LPS for 24 hrs by RT-PCR method relative to untreated control; type: functional
[22] = test system: RAW264.7; assay: Antiinflammatory activity in LPS-stimulated mouse RAW264.7 cells assessed as reduction in COX2 expression at 40 uM co-incubated with LPS for 24 hrs by RT-PCR method relative to untreated control; type: functional
[23] = test system: RAW264.7; assay: Antiinflammatory activity in LPS-stimulated mouse RAW264.7 cells assessed as reduction in COX2 expression at 80 uM co-incubated with LPS for 24 hrs by RT-PCR method relative to untreated control; type: functional
[24] = test system: RAW264.7; assay: Antiinflammatory activity in LPS-stimulated mouse RAW264.7 cells assessed as reduction in COX2 expression at 120 uM co-incubated with LPS for 24 hrs by RT-PCR method relative to untreated control; type: functional
[25] = test system: RAW264.7; assay: Antiinflammatory activity in LPS-stimulated mouse RAW264.7 cells assessed as reduction in TNFalpha expression at 40 uM co-incubated with LPS for 24 hrs by RT-PCR method relative to untreated control; type: functional

CC(C)=CCC[C@@H](C)[C@H]1CC[C@@]2(C)[C@@H]3CC=C4C(C)(C)[C@@H](O[C@@H]5O[C@H](CO[C@@H]6O[C@H](CO[C@@H]7O[C@H](CO)[C@@H](O)[C@H](O)[C@H]7O)[C@@H](O)[C@H](O)[C@H]6O)[C@@H](O)[C@H](O)[C@H]5O)CC[C@]4(C)[C@H]3CC[C@]12C
fold change (FC) [1]: 1
fold change (FC) [2]: 0.5
fold change (FC) [3]: 1
fold change (FC) [4]: 1.1
fold change (FC) [5]: 0.5
fold change (FC) [6]: 0.9
fold change (FC) [7]: 1
fold change (FC) [8]: 0.6
inhibition [9]: Dose-dependent effect
inhibition [10]: Active
viability at 24 h, 40 µM [11]: 121%
viability at 24 h, 80 µM [12]: 145%
viability at 24 h, 120 µM [13]: 155%
Activity [14]: 40.9 µM
Activity [15]: 27.5 µM
Activity [16]: 19.8 µM
IC50 [17]: 86.7 µg/mL (≈ 94.9 µM)
Activity [18]: Non-toxic
fold change (FC) [19]: 1
fold change (FC) [20]: 1.1
fold change (FC) [21]: 0.6
fold change (FC) [22]: 0.7
fold change (FC) [23]: 0.8
fold change (FC) [24]: 0.4
fold change (FC) [25]: 0.9
